Tests used:
K. pneumoniae Y-53 = experiment: Effect of combined use on experimental infection in mice (protection); assay type: in vivo, mice (ICR strain) infected with K. pneumoniae; details: challenge dose 1.0 × 10^7 cells/mouse, peritoneal; subcutaneous administration one and two hours after inoculation
Text: (§1) Male mice (5 mice per group) of the ICR strain, 4 weeks of age, were peritoneally inoculated with the prescribed number of pathogenic bacteria suspended in 5% mucin. After one hour and two hours following the inoculation, test preparations shown in Table 5 were subcuataneously administered to examine the protection effect.

K. pneumoniae Y-4 = experiment: as above; assay type: in vivo, mice (ICR strain) infected with K. pneumoniae; details: challenge dose 5.7 × 10^7 cells/mouse, peritoneal; subcutaneous administration one and two hours after inoculation
Text: as §1

Escherichia coli TK-3 [1] = experiment: Growth-inhibition test on clinically isolated strain (agar, about 10^8 cells/ml); assay type: cell-based; set-up: key: (+) means that the test bacterium grew; (-) means that the test bacterium did not grow; details: Methicillin sodium: 3200,1600,800,400,200,100,50,25,12.5,0 μg/ml, 18 hours, 37° C
Procedure: (§2) Heart Infusion agar containing a prescribed amount of Methicillin sodium or T-1551 Na was inoculated with the test bacterium at a rate of about 10^8 cells/ml. After incubation for 18 hours at 37° C., the growth of the test bacterium was inspected.

[2] = test system: Klebsiella pneumoniae Y-4; experiment: as above; assay type: cell-based; set-up: key: (+) means that the test bacterium grew; (-) means that the test bacterium did not grow; details: Methicillin sodium: 3200,1600,800,400,200,100,50,25,12.5,0 μg/ml, 18 hours, 37° C
Procedure: as §2

[3] = test system: Pseudomonas aeruginosa S-111; experiment: as above; assay type: cell-based; set-up: key: (+) means that the test bacterium grew; (-) means that the test bacterium did not grow; details: Methicillin sodium 3200,1600,800,400,200,100,50,25,12.5,0 μg/ml, 18 hours, 37° C
Procedure: as §2

[4] = test system: Pseudomonas aeruginosa GN 3345; experiment: Growth-inhibition test with potassium clavulanate; assay type: cell-based; set-up: key: (+) means that the test bacterium grew; (-) means that the test bacterium did not grow; details: potassium clavulanate by line b219-b229: 100,(unlabelled),25,(unlabelled),12.5,(unlabelled),3.1,(unlabelled),0.4,(unlabelled),0 μg/ml
Procedure: as §2
(§3) The same operation as in Test Example 1 was repeated, except that the Methicillin sodium was replaced by potassium clavulanate and the test bacteria were replaced by those shown in Tables 6, 7 and 8, to obtain the results shown in Tables 6, 7 and 8.

Escherichia coli GN 6299 = experiment: Growth-inhibition test with potassium clavulanate; assay type: cell-based; set-up: key: (+) means that the test bacterium grew; (-) means that the test bacterium did not grow; details: potassium clavulanate by line b171,b173-b182: 100,(unlabelled),25,(unlabelled),6.25,(unlabelled),1.6,(unlabelled),0.4,(unlabelled),0 μg/ml
Procedure: as §2, §3

[5] = test system: Klebsiella pneumoniae GN 69; experiment: Growth-inhibition test with potassium clavulanate; assay type: cell-based; set-up: key: (+) means that the test bacterium grew; (-) means that the test bacterium did not grow; details: potassium clavulanate 100,25,6.25,1.6,0.4,0 μg/ml
Procedure: as §2, §3

Escherichia coli TK-3 [6] = experiment: Minimum inhibitory concentration; assay type: cell-based; details: TK3; Escherichia coli TK-3 strain
Procedure: (§4) The minimum inhibitory concentration of T-1551 Na or Methicillin sodium against Escherichia coli TK-3 strain or Kleosiella pneumoniae Y-4 strain was greater than 800 μg/ml in each case.

[7] = test system: Klebsiella pneumoniae Y-4; experiment: Minimum inhibitory concentration; assay type: cell-based; details: Y4; Klebsiella pneumoniae Y-4 strain
Procedure: as §4

[8] = T-1551 Na unlabelled column between 12.5 and 3.1 μg/ml
[9] = T-1551 Na unlabelled column between 50 and 12.5 μg/ml
[10] = T-1551 Na unlabelled column between 200 and 50 μg/ml
[11] = T-1551 Na unlabelled column between 800 and 200 μg/ml

CCN1CCN(C(=O)N[C@@H](C(=O)N[C@@H]2C(=O)N3C(C(=O)O)=C(CSc4nnnn4C)CS[C@H]23)c2ccc(O)cc2)C(=O)C1=O [T-1551 Na, sodium 7-[D(-)-α-(4-ethyl-2,3-dioxo-1-piperazinylcarbonylamino)-p-hydroxyphenylacetamide]-3-[5-(1-methyl-1,2,3,4-tetrazolyl)thiomethyl]-Δ^3-cephem-4-carboxylate]
ED50 (protection effect) (K. pneumoniae Y-53): > 10.0 mg/mouse
ED50 (protection effect) (K. pneumoniae Y-4): > 26.8 mg/mouse
growth of the test bacterium (Escherichia coli TK-3 [1]; T-1551 Na 0.78 μg/ml): +
growth of the test bacterium (Escherichia coli TK-3 [1]; T-1551 Na 1.56 μg/ml): +
growth of the test bacterium (Escherichia coli TK-3 [1]; T-1551 Na 3.13 μg/ml): +
growth of the test bacterium (Escherichia coli TK-3 [1]; T-1551 Na 6.25 μg/ml): +
growth of the test bacterium (Escherichia coli TK-3 [1]; T-1551 Na 12.5 μg/ml): +
growth of the test bacterium (Escherichia coli TK-3 [1]; T-1551 Na 25 μg/ml): +
growth of the test bacterium (Escherichia coli TK-3 [1]; T-1551 Na 50 μg/ml): +
growth of the test bacterium (Escherichia coli TK-3 [1]; T-1551 Na 100 μg/ml): +
growth of the test bacterium (Escherichia coli TK-3 [1]; T-1551 Na 200 μg/ml): +
growth of the test bacterium ([2]; T-1551 Na 0.78 μg/ml): +
growth of the test bacterium ([2]; T-1551 Na 1.56 μg/ml): +
growth of the test bacterium ([2]; T-1551 Na 3.13 μg/ml): +
growth of the test bacterium ([2]; T-1551 Na 6.25 μg/ml): +
growth of the test bacterium ([2]; T-1551 Na 12.5 μg/ml): +
growth of the test bacterium ([2]; T-1551 Na 25 μg/ml): +
growth of the test bacterium ([2]; T-1551 Na 50 μg/ml): +
growth of the test bacterium ([2]; T-1551 Na 100 μg/ml): +
growth of the test bacterium ([2]; T-1551 Na 200 μg/ml): +
growth of the test bacterium ([3]; T-1551 Na 0.78 μg/ml): +
growth of the test bacterium ([3]; T-1551 Na 1.56 μg/ml): +
growth of the test bacterium ([3]; T-1551 Na 3.13 μg/ml): +
growth of the test bacterium ([3]; T-1551 Na 6.25 μg/ml): +
growth of the test bacterium ([3]; T-1551 Na 12.5 μg/ml): +
growth of the test bacterium ([3]; T-1551 Na 25 μg/ml): +
growth of the test bacterium ([3]; T-1551 Na 50 μg/ml): +
growth of the test bacterium ([3]; T-1551 Na 100 μg/ml): +
growth of the test bacterium ([3]; T-1551 Na 200 μg/ml): +
growth of the test bacterium ([4]; T-1551 Na 3.1 μg/ml): +
growth of the test bacterium ([4]; T-1551 Na 12.5 μg/ml): +
growth of the test bacterium ([4]; T-1551 Na 50 μg/ml): +
growth of the test bacterium ([4]; T-1551 Na 200 μg/ml): +
growth of the test bacterium ([4]; T-1551 Na 800 μg/ml): -
growth of the test bacterium [4, 8]: +
growth of the test bacterium [4, 9]: +
growth of the test bacterium [4, 10]: +
growth of the test bacterium [4, 11]: -
growth of the test bacterium (Escherichia coli GN 6299; T-1551 Na 0.2 μg/ml): +
growth of the test bacterium (Escherichia coli GN 6299; T-1551 Na 0.8 μg/ml): +
growth of the test bacterium (Escherichia coli GN 6299; T-1551 Na 3.1 μg/ml): +
growth of the test bacterium (Escherichia coli GN 6299; T-1551 Na 12.5 μg/ml): +
growth of the test bacterium (Escherichia coli GN 6299; T-1551 Na 50 μg/ml): +
growth of the test bacterium (Escherichia coli GN 6299; T-1551 Na 200 μg/ml): +
growth of the test bacterium (Escherichia coli GN 6299; T-1551 Na 800 μg/ml): +
growth of the test bacterium (Escherichia coli GN 6299; T-1551 Na unlabelled column between 0.8 and 0.2 μg/ml): +
growth of the test bacterium (Escherichia coli GN 6299; T-1551 Na unlabelled column between 3.1 and 0.8 μg/ml): +
growth of the test bacterium (Escherichia coli GN 6299; [8]): +
growth of the test bacterium (Escherichia coli GN 6299; [9]): +
growth of the test bacterium (Escherichia coli GN 6299; [10]): +
growth of the test bacterium (Escherichia coli GN 6299; [11]): +
growth of the test bacterium ([5]; T-1551 Na 0.2 μg/ml): +
growth of the test bacterium ([5]; T-1551 Na 0.8 μg/ml): +
growth of the test bacterium ([5]; T-1551 Na 3.1 μg/ml): +
growth of the test bacterium ([5]; T-1551 Na 12.5 μg/ml): +
growth of the test bacterium ([5]; T-1551 Na 50 μg/ml): +
growth of the test bacterium ([5]; T-1551 Na 200 μg/ml): +
growth of the test bacterium ([5]; T-1551 Na 800 μg/ml): -
MIC (Escherichia coli TK-3 [6]): > 800 µg/mL
MIC [7]: > 800 µg/mL
